The record followed here is publication PMC3720905, “A Conserved Aspartic Acid Is Important for Agonist (VUAA1) and Odorant/Tuning Receptor-Dependent Activation of the Insect Odorant Co-Receptor (Orco)” (PLoS ONE, 2013).

The target of test [1] is T1, DmelOrco (N-myc DmelOrco) (Drosophila melanogaster, UniProt Q9VNB5).
T1 construct: gene Orco; homomeric channel; ~50 kDa band
T1 sequence (Q9VNB5 1-486): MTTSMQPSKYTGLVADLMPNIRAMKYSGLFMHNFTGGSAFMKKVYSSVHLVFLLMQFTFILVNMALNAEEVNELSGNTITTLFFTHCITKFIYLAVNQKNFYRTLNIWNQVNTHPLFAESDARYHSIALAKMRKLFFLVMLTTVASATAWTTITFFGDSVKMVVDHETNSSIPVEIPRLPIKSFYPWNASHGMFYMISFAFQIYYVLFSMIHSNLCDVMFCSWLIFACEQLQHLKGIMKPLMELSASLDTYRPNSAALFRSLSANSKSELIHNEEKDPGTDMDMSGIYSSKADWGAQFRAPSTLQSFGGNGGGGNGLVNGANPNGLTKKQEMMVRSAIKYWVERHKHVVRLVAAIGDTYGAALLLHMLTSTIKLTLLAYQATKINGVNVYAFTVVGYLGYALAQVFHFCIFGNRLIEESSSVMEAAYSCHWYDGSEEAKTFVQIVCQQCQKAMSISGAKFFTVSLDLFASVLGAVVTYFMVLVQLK
Put plainly: Ca2+ influx (Fluo-4 fluorescence). The class given is cell-based.

In test [2] the target is T2, DmelOrco (N-myc DmelOrco) (Drosophila melanogaster, UniProt Q9VNB5, D357N).
T2 construct: gene Orco; homomeric channel; ~50 kDa band
T2 sequence (Q9VNB5 1-486 D357N): T1 sequence (Q9VNB5 1-486)
Put plainly: Ca2+ influx (Fluo-4 fluorescence). It counts as cell-based.

Test [3] deals with T3, DmelOrco (N-myc DmelOrco) (Drosophila melanogaster, UniProt Q9VNB5, D466N).
T3 construct: gene Orco; homomeric channel; ~50 kDa band
T3 sequence (Q9VNB5 1-486 D466N): T1 sequence (Q9VNB5 1-486)
Put plainly: Ca2+ influx (Fluo-4 fluorescence). The class given is cell-based.

The target in test [4] is T4, DmelOrco (N-myc DmelOrco) (Drosophila melanogaster, UniProt Q9VNB5, D466E).
T4 construct: gene Orco; homomeric channel; ~50 kDa band
T4 sequence (Q9VNB5 1-486 D466E): T1 sequence (Q9VNB5 1-486)
Put plainly: Ca2+ influx (Fluo-4 fluorescence). The class given is cell-based.

Test [5] has as its target T5, DmelOrco/DmelOR22a complex (Drosophila melanogaster, UniProt P81909).
T5 construct: gene Or22a; heteromeric channel; Or22a in pCI transiently transfected into Flp-In 293 T-REX cells stably expressing N-myc DmelOrco; stoichiometry unknown; with Odorant receptor coreceptor
T5 sequence (P81909 1-397): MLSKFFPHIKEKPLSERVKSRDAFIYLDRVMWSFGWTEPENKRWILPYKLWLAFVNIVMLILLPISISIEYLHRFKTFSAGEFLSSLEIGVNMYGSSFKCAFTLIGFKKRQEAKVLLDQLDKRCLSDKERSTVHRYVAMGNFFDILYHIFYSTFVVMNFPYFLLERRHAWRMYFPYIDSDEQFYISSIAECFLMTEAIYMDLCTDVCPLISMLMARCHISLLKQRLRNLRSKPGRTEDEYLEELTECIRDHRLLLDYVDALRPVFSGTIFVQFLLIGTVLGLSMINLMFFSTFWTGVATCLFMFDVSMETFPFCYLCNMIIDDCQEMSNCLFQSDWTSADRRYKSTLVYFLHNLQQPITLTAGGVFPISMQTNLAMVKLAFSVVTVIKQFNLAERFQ
T5 sequence (Q9VNB5 1-486 partner): T1 sequence (Q9VNB5 1-486)
The test is described as follows: Ca2+ influx (Fluo-4 AM fluorescence). It counts as cell-based. As to conditions: heteromeric channel, odorant agonist; data not shown.

Test [6] relates to T6, DmelOrco/AgOR65 complex.
T6 construct: gene Or65; mixed-species heteromeric channel; AgOR65 in pCI transfected into Flp-In 293 T-REX cells stably expressing N-myc DmelOrco; with Odorant receptor coreceptor (Drosophila melanogaster)
Put plainly: Ca2+ influx (Fluo-4 AM fluorescence). It counts as cell-based, Anopheles gambiae. As to conditions: log10 of molar EC50 (unit not given); heteromeric channel, odorant agonist.

The test system of test [7] is T6, DmelOrco/AgOR65 complex. Put plainly: Ca2+ influx (Fluo-4 AM fluorescence). The class given is cell-based, Anopheles gambiae. As to conditions: log10 of molar EC50 (unit not given); heteromeric channel, odorant agonist. This is another data set of the same source.
For test [8], the system named is T6, DmelOrco/AgOR65 complex. The test is described as follows: Ca2+ influx (Fluo-4 AM fluorescence). The class given is cell-based, Anopheles gambiae. As to conditions: log10 of molar EC50 (unit not given); heteromeric channel, odorant agonist. The source holds these as a separate data set.
The target of test [9] is T5, DmelOrco/DmelOR22a complex. The test is described as follows: Ca2+ influx (Fluo-4 AM fluorescence). It counts as cell-based.

The EC50 is the concentration that produces a half-maximal response. Higher therefore signals weaker potency.

Structures are written as SMILES.

As for `CCc1ccc(NC(=O)CSc2nnc(-c3cccnc3)n2CC)cc1` [VUAA1, N-(4-ethylphenyl)-2-((4-ethyl-5-(3-pyridinyl)-4H-1,2,4-triazol-3-yl)thio)acetamide], the EC50 is 46.8 µM in test [1], 38 µM in test [2], 85.1 µM in test [3] and 21.4 µM in [4].

On to `CCCCCC(=O)OCC` [ethyl hexanoate], for which the “Ca2+ influx (Fluo-4 AM fluorescence)” value in test [5] is on record as “Essentially identical responses were observed to ethyl hexanoate”.

`C=CCc1ccc(O)c(OC)c1` [eugenol]: the figures for the LogEC50 in test [6], in test [7] and in test [8] were -6.54±0.05, -6.34±0.04 and -6.75±0.03, respectively.

Compound `CCCCCC(=O)OC` [methyl hexanoate] showed an EC50 in test [9] of 0.417 µM.
